What all share (type): cell-based
Experiment [1] has as its target COX-2 (Homo sapiens (Human), UniProt P35354). Description: COX-2 activity, products from LPS-primed human neutrophils. Particulars: 100% no inhibition, 0% complete inhibition.
Experiment [2] has as its target T1, 5-lipoxygenase (Homo sapiens (Human), UniProt P09917). In words: Stimulation of isolated PMN (neutrophils) for 5-LO products. The note with it: ranges indicate confidence interval, read-out: PMN dose-response. The protocol:
Briefly, blood was centrifuged at 300×g for 5 min at room temperature, plasma was collected and erythrocytes were removed after dextran sedimentation.
Isolated PMN (1×10^7 cells/mL) resuspended in Hank's balanced salt solution (HBSS, Lonza, Walkerville, MD) containing 1.6 mM CaCl2) were pre-incubated with test compounds for 5 min at 37° C. in the presence of 1 U/mL of adenosine deaminase. […] Reactions were stopped with the addition of 0.5 volume of cold MeOH:CH3CN (1:1) and 50 ng of PGB2 as internal standard, and samples were stored at −20° C. overnight for protein denaturation. […] Total 5-LO products quantified represents the sum of LTB4, its trans isomers, 20-COOH— and 20-OH-LTB4 and 5-hydroxyeicosatetraenoic acid.

Experiment [3] has as its target COX-1 (Homo sapiens (Human), UniProt P23219). In words: COX-1 inhibitory activity in human platelets. Particulars: read-out: Percent inhibition at 1 μM.
The target in experiment [4] is T1, 5-lipoxygenase. Description: Ex vivo whole blood stimulation with zymosan; total 5-LO products. The note with it: zymosan-stimulated whole blood; read-out: Whole blood dose-response. The protocol:
Each compound or its diluent was added to heparinized blood obtained from healthy donors (1 mL) at the indicated concentration and incubated for 10 min at 37° C. in a water bath. Following incubations, 125 μL of 40 mg/mL opsonised zymosan was added to each sample, gently vortexed and incubated for 30 min at 37° C. Samples were then centrifuged for 10 min at 960×g at 4° C. Plasma, 350 μL, was removed and added to 1.2 ml of methanol:acetonitrile (1:1) and 50 ng of PGB2 as internal standard. Samples were left overnight at −20° C. for protein denaturation. […] Total 5-LO products quantified represents the sum of LTB4, its trans isomers, 20-COOH— and 20-OH-LTB4 and 5-hydroxyeicosatetraenoic acid.

Experiment [5] concerns the target T1, 5-lipoxygenase. In words: Stimulation of HEK293 cells stably transfected with 5-LO and FLAP; total 5-LO products by HPLC. The note with it: HEK293 cells expressing 5-LO and FLAP; ranges indicate confidence interval; read-out: HEK Dose-response.
Protocol: HEK293 cells were detached by trypsinization and re-suspended in Hank's balanced salt solution containing 1.6 mM CaCl2). Cells (1×10^6 cells/mL) were preincubated at 37° C. with the test compounds or their diluent for 5 minutes and were then stimulated at 37° C. with 10 μM ionophore A23187 and 10 μM AA for 15 min. Stimulations were stopped by adding 0.5 volumes of a methanol:acetonitrile (1:1) solution containing 100 ng/mL each of PGB2 and 19-OH-PGB2 as internal standards, and samples were then kept at −20° C. overnight for protein denaturation. […] Total 5-LO products quantified represents the sum of LTB4, its trans isomers and 5-hydroxyeicosatetraenoic acid.
Where [6] appears, read: read-out: % of control COX-2 activity, n = 1.
The mark [7] stands for this setting: read-out: % of control COX-2 activity, n = 2.

Molecules are shown by their SMILES. Where two headings read alike, the source gives them in different places.

Sequence of COX-1 (P23219 24-599): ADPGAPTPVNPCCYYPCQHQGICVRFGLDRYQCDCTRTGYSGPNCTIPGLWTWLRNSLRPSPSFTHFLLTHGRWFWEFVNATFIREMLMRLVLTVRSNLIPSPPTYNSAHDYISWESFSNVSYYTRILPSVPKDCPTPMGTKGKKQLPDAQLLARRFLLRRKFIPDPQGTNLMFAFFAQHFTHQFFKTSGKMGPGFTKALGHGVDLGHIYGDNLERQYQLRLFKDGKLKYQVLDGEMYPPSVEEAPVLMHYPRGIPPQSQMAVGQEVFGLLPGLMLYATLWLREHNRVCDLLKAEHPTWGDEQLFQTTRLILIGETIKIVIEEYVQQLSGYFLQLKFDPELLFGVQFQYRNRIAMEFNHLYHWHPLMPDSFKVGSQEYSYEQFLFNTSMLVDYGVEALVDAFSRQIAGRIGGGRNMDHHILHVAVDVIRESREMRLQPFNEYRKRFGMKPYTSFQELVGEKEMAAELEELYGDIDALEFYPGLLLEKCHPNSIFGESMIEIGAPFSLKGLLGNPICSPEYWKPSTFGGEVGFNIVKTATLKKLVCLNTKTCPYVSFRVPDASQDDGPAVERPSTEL
T1 sequence (P09917 whole entry): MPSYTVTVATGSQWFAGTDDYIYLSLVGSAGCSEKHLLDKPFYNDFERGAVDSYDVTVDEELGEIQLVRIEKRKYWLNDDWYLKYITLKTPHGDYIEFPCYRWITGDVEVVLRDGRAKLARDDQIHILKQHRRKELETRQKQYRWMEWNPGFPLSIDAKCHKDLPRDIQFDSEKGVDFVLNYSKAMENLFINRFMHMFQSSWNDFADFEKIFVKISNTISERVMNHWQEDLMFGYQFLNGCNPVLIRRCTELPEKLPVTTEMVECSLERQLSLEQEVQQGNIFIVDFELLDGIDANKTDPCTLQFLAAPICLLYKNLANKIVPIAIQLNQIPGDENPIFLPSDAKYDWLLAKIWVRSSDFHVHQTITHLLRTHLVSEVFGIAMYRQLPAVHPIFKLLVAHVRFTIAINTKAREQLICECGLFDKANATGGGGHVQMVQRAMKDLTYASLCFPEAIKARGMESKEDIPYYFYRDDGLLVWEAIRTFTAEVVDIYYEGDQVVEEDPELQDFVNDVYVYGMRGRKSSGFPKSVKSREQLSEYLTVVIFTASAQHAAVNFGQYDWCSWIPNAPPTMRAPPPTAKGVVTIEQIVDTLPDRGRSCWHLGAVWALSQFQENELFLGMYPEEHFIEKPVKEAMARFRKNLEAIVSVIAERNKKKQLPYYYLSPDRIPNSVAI
Sequence of COX-2 (P35354 18-604): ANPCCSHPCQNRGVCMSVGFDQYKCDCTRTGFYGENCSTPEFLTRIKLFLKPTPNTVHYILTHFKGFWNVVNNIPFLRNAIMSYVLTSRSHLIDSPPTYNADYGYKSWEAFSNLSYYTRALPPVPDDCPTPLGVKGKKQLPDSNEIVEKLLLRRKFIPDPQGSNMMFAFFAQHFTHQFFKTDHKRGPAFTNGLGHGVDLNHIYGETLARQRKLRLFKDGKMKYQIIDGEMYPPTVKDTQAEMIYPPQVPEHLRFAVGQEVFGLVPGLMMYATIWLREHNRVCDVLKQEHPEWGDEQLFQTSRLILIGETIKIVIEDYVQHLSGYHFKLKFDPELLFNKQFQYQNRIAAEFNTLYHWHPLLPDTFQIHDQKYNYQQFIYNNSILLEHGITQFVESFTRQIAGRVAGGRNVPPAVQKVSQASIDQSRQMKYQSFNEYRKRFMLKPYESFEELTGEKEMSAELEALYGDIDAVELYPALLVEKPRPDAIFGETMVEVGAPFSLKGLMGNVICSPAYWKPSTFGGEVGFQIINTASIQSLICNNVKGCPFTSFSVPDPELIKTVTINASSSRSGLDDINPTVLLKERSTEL

Take `O=C(/C=C/c1ccc(O)c(O)c1)OCCCc1ccccc1` [Compound 25, (E)-3-phenylpropyl 3-(3,4-dihydroxyphenyl)acrylate]: the figures for the remaining activity at 1 µM in experiment [1] (setting [6]), in experiment [1] (setting [7]) and in experiment [1] (read-out: Avg % of control) were 34.9%, 81.3% and 58.1%, respectively. In experiment [2], the IC50 is 590 to 820 nM. What is called inhibition is the change of the read-out against control, counted positive when it falls. Regarding `O=C(/C=C/c1ccc(O)c(O)c1)OCCc1ccc(F)cc1` [Compound 20, (E)-4-fluorophenethyl 3-(3,4-dihydroxyphenyl)acrylate], the inhibition at 1 µM in experiment [3] was found to be 37.2%. In the case of `O=C(/C=C/c1ccc(O)c(O)c1)OC/C=C/c1ccccc1` [Compound 31, (E)-cinnamyl 3-(3,4-dihydroxyphenyl)acrylate], the IC50 in experiment [2] was determined as 1030 nM.

As to `O=C(Cc1ccc(O)c(O)c1)OCCc1ccccc1` [Compound 34, phenethyl 2-(3,4-dihydroxyphenyl)acetate], the inhibition at 1 µM in experiment [3] was < 20%. In the case of `O=C(CCc1ccc(O)c(O)c1)OCCc1ccccc1` [Compound 32, phenethyl 3-(3,4-dihydroxyphenyl)propanoate], the figures for the remaining activity at 1 µM in experiment [1] (setting [6]), in experiment [1] (setting [7]) and in experiment [1] (read-out: Avg % of control) were 34.3%, 69% and 51.6%, respectively. In addition, in experiment [3], the inhibition at 1 µM came to 42%. Moreover, the IC50 in experiment [2] was 1000 nM. On to `O=C(OCCc1ccccc1)c1ccc(O)c(O)c1` [Compound 36, phenethyl 3,4-dihydroxybenzoate], for which the inhibition at 1 µM in experiment [3] was < 20%. Regarding `O=C(CCc1ccc(O)c(O)c1)OCCCCCCc1ccccc1` [Compound 3, 6-phenylhexyl 3-(3,4-dihydroxyphenyl)propanoate], the values for the IC50 in experiment [4] and in experiment [2] were 2400 nM and 510 nM, respectively.

Turning to `O=C(/C=C/c1ccc(O)c(O)c1)OCCc1ccccc1` [CAPE, caffeic acid phenethyl ester, reference compound], the results for the IC50 in experiment [4], in experiment [5] and in experiment [2] were 3400 nM, 650 to 1200 nM and 840 to 1100 nM, respectively. With `O=C(/C=C/c1ccc(O)c(O)c1)CCc1ccccc1` [Compound 59, (E)-1-(3,4-dihydroxyphenyl)-5-phenylpent-1-en-3-one], the IC50 in experiment [2] was 840 nM. For `O=C(CCc1ccc(O)c(O)c1)OCCCCCc1ccccc1` [Compound 2, 5-phenylpentyl 3-(3,4-dihydroxyphenyl)propanoate], the IC50 in experiment [4] is 2800 nM; in experiment [2] it was 860 nM. As for `O=C(CCc1ccc(O)c(O)c1)OCCCc1ccccc1` [Compound 33, 3-phenylpropyl 3-(3,4-dihydroxyphenyl)propanoate], the remaining activity at 1 µM in experiment [1] (setting [6]) came out at 7.6%; in experiment [1] (setting [7]), 45.3%; in experiment [1] (read-out: Avg % of control) it was 26.4%. Besides, the IC50 in experiment [2] is 890 nM. Consider `O=C(C=Cc1ccc(O)c(O)c1)OCC=Cc1ccccc1` (stereo in doubt) [Compound 4, (E)-(Z)-3-phenylallyl 3-(3,4-dihydroxyphenyl)acrylate], for which the IC50 in experiment [2] is 760 nM. Take `COc1ccc(CCOC(=O)/C=C/c2ccc(O)c(O)c2)cc1` [Compound 22, (E)-4-methoxyphenethyl 3-(3,4-dihydroxyphenyl)acrylate]: in experiment [3], the inhibition at 1 µM was 39.6%. Consider `O=C(/C=C/c1ccc(O)c(O)c1)OCC(c1ccccc1)c1ccccc1` [Compound 27, (E)-2,2-diphenylethyl 3-(3,4-dihydroxyphenyl)acrylate], for which, in experiment [2], the IC50 was found to be 720 nM.

Regarding `O=C(CCc1ccc(O)c(O)c1)OCCCCc1ccccc1` [Compound 1, 4-phenylbutyl 3-(3,4-dihydroxyphenyl)propanoate], in experiment [2], the IC50 was determined as 870 nM. Same read-out and setting: the value for `COc1cc(/C=C/C(=O)OCCCc2ccccc2)cc(OC)c1O` [Compound 6, (E)-3-phenylpropyl 3-(4-hydroxy-3,5-dimethoxyphenyl)acrylate] was 350 nM; that for `O=C(/C=C/c1ccc(O)c(O)c1)OCCCCCCc1ccccc1` [Compound 41, (E)-6-phenylhexyl 3-(3,4-dihydroxyphenyl)acrylate] was 840 nM. As to `O=C(OCCc1ccccc1)c1cc(O)c(O)c(O)c1` [Compound 38, phenethyl 3,4,5-trihydroxybenzoate], the figures for the IC50 in experiment [4] and in experiment [2] were 2800 nM and 790 nM, respectively.

In the case of `O=C(Cc1ccc(O)c(O)c1)OCCCc1ccccc1` [Compound 35, 3-phenylpropyl 2-(3,4-dihydroxyphenyl)acetate], the IC50 in experiment [2] stood at 790 nM. In the case of `O=C(/C=C/c1ccc(O)c(O)c1)NCCCc1ccccc1` [Compound 55, (E)-3-(3,4-dihydroxyphenyl)-N-(3-phenylpropyl)acrylamide], the remaining activity at 1 µM in experiment [1] (setting [6]) is 103%; in experiment [1] (setting [7]), 101%; in experiment [1] (read-out: Avg % of control), 102%. Also, the IC50 in experiment [2] came to 1600 nM. On to `C=C(C)CCOC(=O)/C=C/c1ccc(O)c(O)c1` [Compound 17, (E)-3-methylbut-3-en-1-yl 3-(3,4-dihydroxyphenyl)acrylate], for which the IC50 in experiment [2] amounted to 860 nM. Turning to `Cc1ccc(CCOC(=O)/C=C/c2ccc(O)c(O)c2)cc1` [Compound 21, (E)-4-methylphenethyl 3-(3,4-dihydroxyphenyl)acrylate], the inhibition at 1 µM in experiment [3] came out at 44.6%. Turning to `COc1cc(/C=C/C(=O)OCCc2ccccc2)cc(OC)c1O` [Compound 45, (E)-phenethyl 3-(4-hydroxy-3,5-dimethoxyphenyl)acrylate], the IC50 in experiment [2] is 300 nM.

Consider `O=C(/C=C/c1ccc(O)c(O)c1)OCCCCc1ccccc1` [Compound 39, (E)-4-phenylbutyl 3-(3,4-dihydroxyphenyl)acrylate], for which the remaining activity at 1 µM in experiment [1] (setting [6]) worked out at 62.9%; in experiment [1] (setting [7]), 90.2%; in experiment [1] (read-out: Avg % of control), 76.6%. The IC50 in experiment [2] came to 600 nM.

`O=C(/C=C/c1ccc(O)c(O)c1)OCCCCCc1ccccc1` [Compound 40, (E)-5-phenylpentyl 3-(3,4-dihydroxyphenyl)acrylate]: the remaining activity at 1 µM in experiment [1] (setting [6]) is 37.8%; in experiment [1] (setting [7]), 86.4%; in experiment [1] (read-out: Avg % of control) it was 62.1%. Also, the IC50 in experiment [2] is 530 nM. `O=C(/C=C/c1ccc(O)c(O)c1)NCCCCc1ccccc1` [Compound 56, (E)-3-(3,4-dihydroxyphenyl)-N-(4-phenylbutyl)acrylamide]: the IC50 in experiment [2] worked out at 920 nM.

For the origin of these results see US20240425441A9, “MODULATORS OF LIPOXYGENASE AND CYCLOOXYGENASE ENZYME ACTIVITY” (Université de Moncton, priority 2016, published 2024).
